Results published in PubChem BioAssay AID256 (DTP/NCI, 2004).
“And” between values parts separate entries of the source, which are not always exact repeats. Equal entries are not always repeated. Inconclusive results and toxic doses are left out. The calls were made as follows: active = survival T/C of 150% or more; inactive = T/C below 125% in these data.

System: CD2F1 mice, L1210 leukemia ip, survival T/C
Assay: NCI In Vivo Anticancer Drug Screen. Data for tumor model L1210 Leukemia (intraperitoneal) in CD2F1 (CDF1) mice
Conditions: higher = longer survival
Procedure, shortened: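 Compound-dosed mice with transplantable tumor versus matched vehicle controls; endpoint ratio T/C reported.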

[1] = endpoint: mean survival time, dose: 100.0 mg/kg/injection, schedule: Q04DX003 (ip), vehicle: saline with Tween-80
[2] = endpoint: mean survival time, dose: 200.0 mg/kg/injection, schedule: Q04DX003 (ip), vehicle: saline with Tween-80
[3] = endpoint: mean survival time, dose: 400.0 mg/kg/injection, schedule: Q04DX003 (ip), vehicle: saline with Tween-80
[4] = endpoint: mean survival time, dose: 75.0 mg/kg/injection, schedule: Q01DX001 (ip), vehicle: saline
[5] = endpoint: mean survival time, dose: 150.0 mg/kg/injection, schedule: Q01DX001 (ip), vehicle: saline
[6] = endpoint: mean survival time, dose: 100.0 mg/kg/injection, schedule: Q04DX003 (ip), vehicle: saline
[7] = endpoint: mean survival time, dose: 200.0 mg/kg/injection, schedule: Q04DX003 (ip), vehicle: saline
[8] = endpoint: mean survival time, dose: 300.0 mg/kg/injection, schedule: Q01DX001 (ip), vehicle: saline
[9] = endpoint: mean survival time, dose: 25.0 mg/kg/injection, schedule: Q04DX002 (ip), vehicle: saline with Tween-80
[10] = endpoint: mean survival time, dose: 50.0 mg/kg/injection, schedule: Q04DX002 (ip), vehicle: saline with Tween-80
[11] = endpoint: mean survival time, dose: 200.0 mg/kg/injection, schedule: Q01DX009 (ip), vehicle: saline with Tween-80
[12] = endpoint: mean survival time, dose: 400.0 mg/kg/injection, schedule: Q01DX009 (ip), vehicle: saline with Tween-80
[13] = endpoint: mean survival time, dose: 100.0 mg/kg/injection, schedule: Q01DX009 (ip), vehicle: saline with Tween-80
[14] = endpoint: mean survival time, dose: 25.0 mg/kg/injection, schedule: Q01DX009 (ip), vehicle: saline with Tween-80
[15] = endpoint: mean survival time, dose: 50.0 mg/kg/injection, schedule: Q01DX009 (ip), vehicle: saline with Tween-80
[16] = endpoint: mean survival time, dose: 100.0 mg/kg/injection, schedule: Q04DX002 (ip), vehicle: saline with Tween-80
[17] = endpoint: mean survival time, dose: 100.0 mg/kg/injection, schedule: Q01DX001 (ip), vehicle: Klucel (hydroxypropylcellulose) (HPC)
[18] = endpoint: mean survival time, dose: 400.0 mg/kg/injection, schedule: Q01DX001 (ip), vehicle: Klucel (hydroxypropylcellulose) (HPC)

Measured: T/C

CCOC(=O)c1cc(Cl)cc(Cl)c1N=NN(C)C
inactive: endpoint: mean survival time, dose: 25.0 mg/kg/injection, schedule: Q01DX009 (ip), vehicle: saline 93 % of control | endpoint: mean survival time, dose: 50.0 mg/kg/injection, schedule: Q01DX009 (ip), vehicle: saline 93 % of control | endpoint: mean survival time, dose: 100.0 mg/kg/injection, schedule: Q01DX009 (ip), vehicle: saline 100 % of control | endpoint: mean survival time, dose: 200.0 mg/kg/injection, schedule: Q01DX009 (ip), vehicle: saline 97 % of control

O=C(CC(=O)C(F)(F)F)c1ccco1.O=C(CC(=O)C(F)(F)F)c1ccco1.O=C(CC(=O)C(F)(F)F)c1ccco1.[Eu]
inactive: [1] 94 % of control | [2] 94 % of control | [3] 89 % of control

CC(CN=[N+]=[N-])OC(=O)C(F)(F)F (stereo not given)
inactive: endpoint: mean survival time, dose: 37.5 mg/kg/injection, schedule: Q01DX009 (ip), vehicle: saline 94 % of control | [4] 98 % of control | endpoint: mean survival time, dose: 75.0 mg/kg/injection, schedule: Q01DX009 (ip), vehicle: saline 94 % of control | [5] 101 % of control

CCCCCC(O)CCC(=O)NN (stereo not given)
inactive: [6] 100 % of control | [7] 117 % of control

COc1ccc(F)c(NC(=O)/C=N/O)c1
inactive: [1] 102 % of control | [2] 102 % of control | [3] 100 % of control

CNC(=S)N/N=C/c1c(Cl)n(-c2ccccc2)c2c(/C=N/NC(=S)NC)cccc12
inactive: endpoint: mean survival time, dose: 25.0 mg/kg/injection, schedule: Q04DX003 (ip), vehicle: Klucel (hydroxypropylcellulose) (HPC) 96 % of control | endpoint: mean survival time, dose: 50.0 mg/kg/injection, schedule: Q04DX003 (ip), vehicle: Klucel (hydroxypropylcellulose) (HPC) 93 % of control | endpoint: mean survival time, dose: 100.0 mg/kg/injection, schedule: Q04DX003 (ip), vehicle: Klucel (hydroxypropylcellulose) (HPC) 89 % of control

NNc1nc(=O)[nH]nc1Sc1ccccc1
inactive: [4] 96 % of control | [5] 101 % of control | [8] 97 % of control

[Cl][Hg][c]1ccc2ccccc2c1
inactive: endpoint: mean survival time, dose: 12.5 mg/kg/injection, schedule: Q04DX002 (ip), vehicle: saline with Tween-80 90 % of control | [9] 102 % of control | [10] 111 % of control

Cc1ccc([N+](=O)[O-])cc1NC(=O)NNC(=O)CNC(=O)Nc1ccc(F)cc1
inactive: [11] 87 % of control | [12] 92 % of control

CCCn1c(O)c(C=N)c(=O)n(CCC)c1=O
inactive: [13] 98 % of control | [1] 96 % of control | [11] 101 % of control | [2] 97 % of control | [12] 101 % of control | [3] 100 % of control

CCN1C(=O)/C(=C\C=C2/SCCN2C)OC1=S
inactive: endpoint: mean survival time, dose: 75.0 mg/kg/injection, schedule: Q01DX001 (ip), vehicle: other 92 % of control | endpoint: mean survival time, dose: 150.0 mg/kg/injection, schedule: Q01DX001 (ip), vehicle: other 100 % of control | endpoint: mean survival time, dose: 300.0 mg/kg/injection, schedule: Q01DX001 (ip), vehicle: other 94 % of control

CCOC(=O)Nc1ccc(S(=O)(=O)O)cc1
inactive: endpoint: mean survival time, dose: 100.0 mg/kg/injection, schedule: Q01DX001 (ip), vehicle: saline 94 % of control | endpoint: mean survival time, dose: 200.0 mg/kg/injection, schedule: Q01DX001 (ip), vehicle: saline 105 % of control | endpoint: mean survival time, dose: 400.0 mg/kg/injection, schedule: Q01DX001 (ip), vehicle: saline 98 % of control

O=C(COc1ccc(Cl)cc1C(=O)O)NCc1ccc(NC(=O)Nc2ccc(S(=O)(=O)F)cc2)cc1
inactive: endpoint: mean survival time, dose: 100.0 mg/kg/injection, schedule: Q01DX001 (ip), vehicle: saline with Tween-80 96 % of control | endpoint: mean survival time, dose: 200.0 mg/kg/injection, schedule: Q01DX001 (ip), vehicle: saline with Tween-80 91 % of control | endpoint: mean survival time, dose: 400.0 mg/kg/injection, schedule: Q01DX001 (ip), vehicle: saline with Tween-80 91 % of control

COc1ccccc1NC(=O)Oc1ccccc1-c1ccccc1
inactive: [14] 93 % of control | [9] 98 % of control | [15] 93 % of control | [10] 110 % of control | [13] 93 % of control | [16] 87 % of control and 104 % of control

N=C(N)Cc1ccc(NC(=O)c2ccc(C(=O)Nc3ccc(CC(=N)N)cc3)cc2)cc1
inactive: endpoint: mean survival time, dose: 7.2 mg/kg/injection, schedule: Q01DX009 (ip), vehicle: acetone 102 % of control | endpoint: mean survival time, dose: 10.8 mg/kg/injection, schedule: Q01DX009 (ip), vehicle: acetone 121 % of control

ClCCCC1(CCCCl)OCCO1
inactive: [16] 101 % of control | endpoint: mean survival time, dose: 200.0 mg/kg/injection, schedule: Q04DX002 (ip), vehicle: saline with Tween-80 97 % of control | endpoint: mean survival time, dose: 400.0 mg/kg/injection, schedule: Q04DX002 (ip), vehicle: saline with Tween-80 104 % of control

Nc1cc(Cl)c(N)c(N)n1
inactive: [13] 100 % of control | [11] 91 % of control

C[N+](C)(C)Cc1ncccc1OC(=O)N(c1ccccc1)c1ccccc1
inactive: [14] 98 % of control | [15] 96 % of control | [13] 107 % of control

O=c1oc(-c2cccc(Cl)c2)nc2cc(Cl)ccc12
inactive: [17] 98 % of control | endpoint: mean survival time, dose: 200.0 mg/kg/injection, schedule: Q01DX001 (ip), vehicle: Klucel (hydroxypropylcellulose) (HPC) 95 % of control | [18] 94 % of control

C=COC(=O)C(Cc1ccccc1)NC(=O)OCc1ccccc1 (stereo not given)
inactive: endpoint: median survival time, dose: 25.0 mg/kg/injection, schedule: Q01DX009 (ip), vehicle: saline with Tween-80 96 % of control | endpoint: median survival time, dose: 50.0 mg/kg/injection, schedule: Q01DX009 (ip), vehicle: saline with Tween-80 96 % of control | endpoint: median survival time, dose: 100.0 mg/kg/injection, schedule: Q01DX009 (ip), vehicle: saline with Tween-80 93 % of control | endpoint: median survival time, dose: 200.0 mg/kg/injection, schedule: Q01DX009 (ip), vehicle: saline with Tween-80 93 % of control | endpoint: median survival time, dose: 400.0 mg/kg/injection, schedule: Q01DX009 (ip), vehicle: saline with Tween-80 101 % of control

OC(c1c(F)c(F)c(C(O)(C(F)(F)F)C(F)(F)F)c(F)c1F)(C(F)(F)F)C(F)(F)F
inactive: [1] 96 % of control | [2] 104 % of control | [3] 96 % of control

CN1CCCN(C(=S)S)CC1
inactive: endpoint: mean survival time, dose: 25.0 mg/kg/injection, schedule: Q04DX003 (ip), vehicle: saline 98 % of control | endpoint: mean survival time, dose: 50.0 mg/kg/injection, schedule: Q04DX003 (ip), vehicle: saline 103 % of control | [6] 103 % of control

Nc1nc(=S)c2ncn(C3OC(CO)C4OC43)c2[nH]1 (stereo not given)
inactive: [4] 101 % of control | [5] 98 % of control | [8] 97 % of control

CC(=O)Nc1ccc(CN(C)N=Nc2ccc(C(=O)O)cc2)cc1
inactive: endpoint: mean survival time, dose: 25.0 mg/kg/injection, schedule: Q01DX009 (ip), vehicle: water 95 % of control | endpoint: mean survival time, dose: 50.0 mg/kg/injection, schedule: Q01DX009 (ip), vehicle: water 97 % of control | endpoint: mean survival time, dose: 100.0 mg/kg/injection, schedule: Q01DX009 (ip), vehicle: water 106 % of control | endpoint: mean survival time, dose: 200.0 mg/kg/injection, schedule: Q01DX009 (ip), vehicle: water 86 % of control | endpoint: mean survival time, dose: 400.0 mg/kg/injection, schedule: Q01DX009 (ip), vehicle: water 95 % of control

CC(C)(O)C#CC(C)(C)O
inactive: [6] 101 % of control | [7] 101 % of control | endpoint: mean survival time, dose: 400.0 mg/kg/injection, schedule: Q04DX003 (ip), vehicle: saline 97 % of control

O=C1c2ccccc2C(=O)N1c1ccc(Br)cc1
inactive: [17] 100 % of control | [18] 96 % of control
